Literature values in PMC3433420 (PLoS ONE, 2012).
Like-named read-outs stand apart in the source and are kept apart here.

Target: SH2 and PTB domains
Conditions: cited from earlier work
From the text: Supplement pone.0044471.s022.xlsx, sheet "Most recent PM interactions" | column: Kd || Supplement pone.0044471.s022.xlsx, sheet "All original PM interactions" | column: Kd

[1] = protein ABL2, ref Jones et al. 2006 / Kaushansky et al. Mol Biosys 2008 / Kaushansky et al. Chem and Biol 2008
[2] = protein BLK, ref Jones et al. 2006 / Kaushansky et al. Mol Biosys 2008 / Kaushansky et al. Chem and Biol 2008
[3] = protein GRB10, ref Jones et al. 2006 / Kaushansky et al. Mol Biosys 2008 / Kaushansky et al. Chem and Biol 2008
[4] = protein ITK, ref Jones et al. 2006 / Kaushansky et al. Mol Biosys 2008 / Kaushansky et al. Chem and Biol 2008
[5] = protein PIK3R1-NC, ref Jones et al. 2006 / Kaushansky et al. Mol Biosys 2008 / Kaushansky et al. Chem and Biol 2008
[6] = protein PIK3R3-NC, ref Jones et al. 2006 / Kaushansky et al. Mol Biosys 2008 / Kaushansky et al. Chem and Biol 2008
[7] = protein RASA1-N, ref Jones et al. 2006 / Kaushansky et al. Mol Biosys 2008 / Kaushansky et al. Chem and Biol 2008
[8] = protein RASA1-NC, ref Jones et al. 2006 / Kaushansky et al. Mol Biosys 2008 / Kaushansky et al. Chem and Biol 2008
[9] = protein SH2B3, ref Jones et al. 2006 / Kaushansky et al. Mol Biosys 2008 / Kaushansky et al. Chem and Biol 2008
[10] = protein SH2B, ref Jones et al. 2006 / Kaushansky et al. Mol Biosys 2008 / Kaushansky et al. Chem and Biol 2008
[11] = protein SH2D3C, ref Jones et al. 2006 / Kaushansky et al. Mol Biosys 2008 / Kaushansky et al. Chem and Biol 2008
[12] = protein SHC1-PTB, ref Jones et al. 2006 / Kaushansky et al. Mol Biosys 2008 / Kaushansky et al. Chem and Biol 2008
[13] = protein SHC2-PTB, ref Jones et al. 2006 / Kaushansky et al. Mol Biosys 2008 / Kaushansky et al. Chem and Biol 2008
[14] = protein SLA, ref Jones et al. 2006 / Kaushansky et al. Mol Biosys 2008 / Kaushansky et al. Chem and Biol 2008
[15] = protein SRC, ref Jones et al. 2006 / Kaushansky et al. Mol Biosys 2008 / Kaushansky et al. Chem and Biol 2008
[16] = protein SYK-NC, ref Jones et al. 2006 / Kaushansky et al. Mol Biosys 2008 / Kaushansky et al. Chem and Biol 2008
[17] = protein TNS4, ref Jones et al. 2006 / Kaushansky et al. Mol Biosys 2008 / Kaushansky et al. Chem and Biol 2008
[18] = protein YES1, ref Jones et al. 2006 / Kaushansky et al. Mol Biosys 2008 / Kaushansky et al. Chem and Biol 2008
[19] = protein ABL2, ref Jones et al. 2006 / Kaushansky et al. Chem and Biol 2008
[20] = protein SHC1-PTB, ref Jones et al. 2006 / Kaushansky et al. Chem and Biol 2008

For “DNPDpYQQDFFPKd [ErbB1 pY1172, N-terminally rhodamine-labeled 13-mer phosphopeptide]”, the Kd [1] is given as 0.49 µM, the Kd (protein BCAR3, ref Jones et al. 2006 / Kaushansky et al. Mol Biosys 2008 / Kaushansky et al. Chem and Biol 2008) is given as 0.3 µM and the Kd [2] is given as 0.75 µM. The Kd (protein CRK, ref Jones et al. 2006 / Kaushansky et al. Mol Biosys 2008 / Kaushansky et al. Chem and Biol 2008) was 0.41 µM, the Kd (protein FGR, ref Jones et al. 2006 / Kaushansky et al. Mol Biosys 2008 / Kaushansky et al. Chem and Biol 2008) was 0.55 µM and the Kd [3] was 1.29 µM. The Kd (protein GRB14, ref Jones et al. 2006 / Kaushansky et al. Mol Biosys 2008 / Kaushansky et al. Chem and Biol 2008) was 1.25 µM, the Kd [4] was 1.41 µM and the Kd (protein LYN, ref Jones et al. 2006 / Kaushansky et al. Mol Biosys 2008 / Kaushansky et al. Chem and Biol 2008) was 1.59 µM. For the same substance, the Kd (protein NCK2, ref Jones et al. 2006 / Kaushansky et al. Mol Biosys 2008 / Kaushansky et al. Chem and Biol 2008) was 0.38 µM, the Kd (protein PIK3R1-N, ref Jones et al. 2006 / Kaushansky et al. Mol Biosys 2008 / Kaushansky et al. Chem and Biol 2008) was 0.4 µM and the Kd [5] was 0.55 µM. For the same substance, the Kd (protein PIK3R2-N, ref Jones et al. 2006 / Kaushansky et al. Mol Biosys 2008 / Kaushansky et al. Chem and Biol 2008) was 0.39 µM, the Kd (protein PIK3R2-NC, ref Jones et al. 2006 / Kaushansky et al. Mol Biosys 2008 / Kaushansky et al. Chem and Biol 2008) was 0.32 µM and the Kd [6] was 0.85 µM. The Kd (protein PLCG2-N, ref Jones et al. 2006 / Kaushansky et al. Mol Biosys 2008 / Kaushansky et al. Chem and Biol 2008) was 0.84 µM, the Kd (protein PLCG2-NC, ref Jones et al. 2006 / Kaushansky et al. Mol Biosys 2008 / Kaushansky et al. Chem and Biol 2008) was 0.67 µM and the Kd [7] was 1.14 µM. For the same substance, the Kd [8] was 1.17 µM, the Kd [9] was 1.6 µM and the Kd [10] was 1.82 µM. The Kd [11] was 1.91 µM, the Kd (protein SHB, ref Jones et al. 2006 / Kaushansky et al. Mol Biosys 2008 / Kaushansky et al. Chem and Biol 2008) was 1.79 µM and the Kd [12] was 0.04 µM. For the same substance, the Kd [13] was 1.31 µM, the Kd [14] was 2 µM and the Kd [15] was 0.47 µM. For the same substance, the Kd (protein SUPT6H, ref Jones et al. 2006 / Kaushansky et al. Mol Biosys 2008 / Kaushansky et al. Chem and Biol 2008) was 1.03 µM, the Kd (protein SYK-C, ref Jones et al. 2006 / Kaushansky et al. Mol Biosys 2008 / Kaushansky et al. Chem and Biol 2008) was 0.87 µM and the Kd [16] was 1.28 µM. For the same substance, the Kd (protein TNS3, ref Jones et al. 2006 / Kaushansky et al. Mol Biosys 2008 / Kaushansky et al. Chem and Biol 2008) was 0.74 µM, the Kd [17] was 0.33 µM and the Kd (protein VAV2, ref Jones et al. 2006 / Kaushansky et al. Mol Biosys 2008 / Kaushansky et al. Chem and Biol 2008) was 0.22 µM. For the same substance, the Kd (protein VAV3, ref Jones et al. 2006 / Kaushansky et al. Mol Biosys 2008 / Kaushansky et al. Chem and Biol 2008) was 2 µM and the Kd [18] was 0.1 µM.
In the case of “DNPDpYWHSRLFPd [ErbB3 pY1328, N-terminally rhodamine-labeled 13-mer phosphopeptide]”, the Kd [19] is listed as 0.6 µM, the Kd (protein HSH2D, ref Jones et al. 2006 / Kaushansky et al. Chem and Biol 2008) is listed as 1.7 µM and the Kd (protein MATK, ref Jones et al. 2006 / Kaushansky et al. Chem and Biol 2008) is listed as 1.87 µM. For the same substance, the Kd (protein NCK2, ref Jones et al. 2006 / Kaushansky et al. Chem and Biol 2008) was 1.9 µM, the Kd (protein RASA1-NC, ref Jones et al. 2006 / Kaushansky et al. Chem and Biol 2008) was 1.92 µM and the Kd [20] was 0.22 µM. For the same substance, the Kd (protein SYK-NC, ref Jones et al. 2006 / Kaushansky et al. Chem and Biol 2008) was 1.98 µM, the Kd (protein TENC1, ref Jones et al. 2006 / Kaushansky et al. Chem and Biol 2008) was 1.25 µM and the Kd (protein TNS4, ref Jones et al. 2006 / Kaushansky et al. Chem and Biol 2008) was 0.85 µM.
For “DNPDpYWNHSLPPd [ErbB4 pY1242, N-terminally rhodamine-labeled 13-mer phosphopeptide]”, the Kd (protein ABL2, ref Kaushansky et al. Chem and Biol 2008) is listed as 0.034 µM and the Kd (protein SHC1-PTB, ref Kaushansky et al. Chem and Biol 2008) is listed as 0.51 µM.
In the case of “DNPEpYHNASNGPd [ErbB4 pY1188, N-terminally rhodamine-labeled 13-mer phosphopeptide]”, the Kd (protein ABL1, all original PM interactions, ref Jones et al. 2006 / Kaushansky et al. Chem and Biol 2008) is given as 1.82 µM, the Kd (protein ABL2, all original PM interactions, ref Jones et al. 2006 / Kaushansky et al. Chem and Biol 2008) is given as 0.76 µM and the Kd [19] is given as 0.035 µM. The Kd (protein NCK2, all original PM interactions, ref Jones et al. 2006 / Kaushansky et al. Chem and Biol 2008) was 2 µM, the Kd (protein PIK3R3-NC, all original PM interactions, ref Jones et al. 2006 / Kaushansky et al. Chem and Biol 2008) was 2 µM and the Kd (protein SHC1-PTB, all original PM interactions, ref Jones et al. 2006 / Kaushansky et al. Chem and Biol 2008) was 0.28 µM. The Kd [20] was 0.72 µM.
For “DSNFpYRALMDEEd [ErbB1 pY998, N-terminally rhodamine-labeled 13-mer phosphopeptide]”, the Kd [1] is listed as 2 µM, the Kd [2] is listed as 0.19 µM and the Kd (protein FES, ref Jones et al. 2006 / Kaushansky et al. Mol Biosys 2008 / Kaushansky et al. Chem and Biol 2008) is listed as 1.23 µM. For the same substance, the Kd [3] was 2 µM, the Kd [4] was 0.28 µM and the Kd (protein LCK, ref Jones et al. 2006 / Kaushansky et al. Mol Biosys 2008 / Kaushansky et al. Chem and Biol 2008) was 2 µM. The Kd [5] was 0.24 µM, the Kd [6] was 0.97 µM and the Kd (protein PTPN6-NC, ref Jones et al. 2006 / Kaushansky et al. Mol Biosys 2008 / Kaushansky et al. Chem and Biol 2008) was 2 µM. For the same substance, the Kd [7] was 1.06 µM, the Kd [8] was 1.38 µM and the Kd [9] was 1.36 µM. For the same substance, the Kd [10] was 2 µM, the Kd (protein SH2D2A, ref Jones et al. 2006 / Kaushansky et al. Mol Biosys 2008 / Kaushansky et al. Chem and Biol 2008) was 2 µM and the Kd [11] was 2 µM. The Kd [12] was 1.15 µM, the Kd [13] was 0.98 µM and the Kd [14] was 1.6 µM. The Kd (protein SOCS1, ref Jones et al. 2006 / Kaushansky et al. Mol Biosys 2008 / Kaushansky et al. Chem and Biol 2008) was 2 µM, the Kd (protein SOCS2, ref Jones et al. 2006 / Kaushansky et al. Mol Biosys 2008 / Kaushansky et al. Chem and Biol 2008) was 2 µM and the Kd [15] was 1.14 µM. The Kd [16] was 0.91 µM, the Kd [17] was 2 µM and the Kd [18] was 0.72 µM. The Kd (protein ZAP70-NC, ref Jones et al. 2006 / Kaushansky et al. Mol Biosys 2008 / Kaushansky et al. Chem and Biol 2008) was 1.65 µM.
For “EDYEpYMNRQRDGd [ErbB3 pY1262, N-terminally rhodamine-labeled 13-mer phosphopeptide]”, the Kd (Protein PIK3R3-NC, original PM interactions, ref Jones et al. 2006 / Kaushansky et al. Chem and Biol 2008) is listed as 2 µM, the Kd (Protein PLCG2-NC, original PM interactions, ref Jones et al. 2006 / Kaushansky et al. Chem and Biol 2008) is listed as 2 µM and the Kd (Protein RASA1-NC, original PM interactions, ref Jones et al. 2006 / Kaushansky et al. Chem and Biol 2008) is listed as 2 µM. The Kd (Protein SLA, original PM interactions, ref Jones et al. 2006 / Kaushansky et al. Chem and Biol 2008) was 2 µM, the Kd (Protein SOCS5, original PM interactions, ref Jones et al. 2006 / Kaushansky et al. Chem and Biol 2008) was 2 µM and the Kd [19] was 1.96 µM. The Kd (protein RASA1-N, ref Jones et al. 2006 / Kaushansky et al. Chem and Biol 2008) was 1.21 µM.
In the case of “EEKEpYHAEGGKVd [ErbB1 pY869, N-terminally rhodamine-labeled 13-mer phosphopeptide]”, the Kd [1] is listed as 2 µM and the Kd [2] is listed as 1.71 µM.
